In patent publication US20130296370A1, “COMPOSITION COMPRISING A PHOTOACTIVATABLE LARVICIDE” (UNIVERSITA DEGLI STUDI DI PADOVA, priority 2010, published 2013):

Assays:
Format in all cases: in vivo
An. stephensi = assay: Laboratory-scale tray larvicide test; details: carrier mouse food; 6 mg per tray; loading concentration 0.5 μM; fluorescent lamp
Protocol: Laboratory strains of Anopheles stephensi, M and S (Kisumu), chromosomal forms of An. gambiae, An. arabiensis and Aedes aegypti, as well as field-collected Anopheles spp. and Aedes spp. larvae were used. Laboratory mosquitoes were maintained at 28-30° C., >90% RH and a photoperiod of 12 h. Light intensity ranged between 0.5 mW/cm^2 (fluorescent lamp) and 185 mW/cm^2 (sunlight).
C12 or C14 porphyrin solutions at 5-100 μM concentrations were pre-incubated at room temperature in the darkness with 15-60 mg of carrier (either Eudragit or ground mouse food or cat food) for 4-12 hours under gentle shaking. After incubation the solutions were filtered, and the loaded carrier was dried at room temperature or in an oven (45° C.).
One litre capacity, transparent plastic trays containing wells with each 500 ml water and 6-60 mg of the composition of the present invention were prepared. Batches of 60-100 L2, L3 or L4 larvae were introduced into the trays after sunset (or artificial light off). Larval mortality was evaluated the next day starting from 8.00 am, and the time required to reach at least 90% mortality was recorded. Larvae not moving or not showing an escaping response at probing were defined as dead or dying, and counted together (Tables 2 and 3). Pupae occasionally formed throughout the irradiation time were discarded and excluded from the evaluation. An equal number of batches of larvae prepared in the same way were kept in continuous darkness and mortality was evaluated similarly, to assess toxicity in the dark.
Light intensity range: 0.5-185 mW/cm^2.

Aedes aegypti larvae = assay: C14 porphyrin toxicity in the light; details: 5 μM C14
Protocol: […] After the irradiation period, larvae were kept in the dark and larval mortality was monitored for 6 days. Arithmetic means of percentages of dead larvae. Error bars represent standard deviations (n=3 replicates of 50 larvae each).
(§1) Irradiation of mosquito larvae were performed by employing full spectrum visible light (400-800 nm) at a fluence rate of 1.0 to 4.0 mW/cm^2 using low-pressure mercury discharge fluorescent tubes TL-D Standard Colours (TL-D 58W/33-640 1SL, PHILIPS, EC). The intensity of the incident radiation was measured by an ILT1400A radiometer/photometer, equipped with a SED623/HNK15 multi-junction thermopile detector (International Light Technologies Inc., MA, USA).
(§2) All the experiments were carried out in a climatic chamber at 28±2° C. with a regulated photoperiod of 12 hours. Transparent plastic trays, containing 500 ml C14 solutions or spring water were employed. Typically, 5±1 days old, 3rd-early 4th instar Aedes aegypti larvae were used. All the experiments were replicated three times.
Fifty larvae were added to groups of trays containing 5 μM porphyrin C14 solution or spring water as a control. Trays were provided with PFP (wherein PFP means powdered food pellet (PFP) with final particle diameter of 5-500 μm diameter obtained by crushing a standard food pellet for laboratory rodents, namely 4RF18 GLP (Mucedola Srl, Italy) using an electric blender and then sieving at mesh diameter 500 μm) and incubated in the dark for 12 hours. […] After irradiation, the trays were returned in the dark, and larval mortality was assessed every 24 hours for the following 6 days. Larvae not moving or not showing a normally vigorous escaping response at probing were defined as dead or dying, respectively, and counted together. Pupae formed during the experiment were transferred to smaller trays containing spring water, within screened cages at normal colony photoperiod conditions, and monitored for mortality and adult emergence.

[1] = system: 3rd-4th instar Ae. aegypti larvae; assay: Larvicidal efficacy of C14 porphyrin (LC50); details: 6 mg PFP
Protocol: as §1, §2
Mortality data were analyzed by ANOVA and LSD post-hoc tests using SPSS v. 11.0 (SPSS Inc.). LC50 values and relevant statistics were obtained by nonlinear regression of mortality data, using OriginPro v. 7.5 (OriginLab Corp.).
Trays containing C14 porphyrin solutions at 7 increasing concentrations (range 0.03-4.3 μM), or spring water as a control, were provided with 6 mg of PFP each (wherein PFP means powdered food pellet (PFP) with final particle diameter of 5-500 μm diameter obtained by crushing a standard food pellet for laboratory rodents, namely 4RF18 GLP (Mucedola Srl, Italy) using an electric blender and then sieving at mesh diameter 500 μm) and then incubated in the dark for 48 hours. Batches of 100 larvae, fasted for the previous 24 hours, were introduced into the trays at 8.00 pm (beginning of the 12 hour-long dark period in the climatic chamber). Larval mortality was evaluated on the next day at 9 am (after 1 hour irradiation), 2 pm (6 hours irradiation) and 8 pm (12 hours irradiation). An additional mortality evaluation was performed on the following day at 8.00 am, after a further overnight incubation. Larvae not moving or not showing a normally vigorous escaping response at probing were defined as dead or dying, respectively, and counted together. Pupae occasionally formed during the experiment, which never exceeded 10% of the total number of larvae, were discarded and excluded from the evaluation.
C14 solutions were incubated with 6 mg PFP at 28±2° C. in the dark for 48 hours. Larvae (3rd-4th instar, n=100, 3 replicates) were introduced 12 hours before the start of the irradiation (fluence rate: 1.0-4.0 mW/cm^2).

CCCCCCCCCCCCCC[n+]1ccc(-c2c3nc(c(-c4cc[n+](C)cc4)c4ccc([nH]4)c(-c4cc[n+](C)cc4)c4nc(c(-c5cc[n+](C)cc5)c5ccc2[nH]5)C=C4)C=C3)cc1.Cc1ccc(S(=O)(=O)[O-])cc1.Cc1ccc(S(=O)(=O)[O-])cc1.Cc1ccc(S(=O)(=O)[O-])cc1.Cc1ccc(S(=O)(=O)[O-])cc1 [C14, meso-tri(N-methyl-pyridyl), mono(N-tetradecyl-pyridyl)porphine]
Time to reach ≧90% mortality (An. stephensi): 1 h | larval mortality (Aedes aegypti larvae; 6 hour-long light, count 24 hours later): 100% | larval mortality (Aedes aegypti larvae; dark-incubated 8 hours, 6 hour-long light 1.0-4.0 mW/cm^2, within irradiation period): 97.99%±0.05% | larval mortality (Aedes aegypti larvae; irradiated one hour, thereafter kept in the dark, day 6): 92.1%±7.9% | LC50 ([1]; 12 light + 12 dark hours): 110 nM | LC50 ([1]; 1 hour of irradiation, 1.0-4.0 mW/cm^2): 460 nM | LC50 ([1]; 6 hours of irradiation, 1.0-4.0 mW/cm^2): 250 nM | LC50 ([1]; 12 hours of irradiation, 1.0-4.0 mW/cm^2): 220 nM
